IC50 data for 21 molecules are collected here from US20140005163A1 (NOVARTIS AG, priority 2010, published 2014).

Test [1] concerns S6 Ribosomal Protein phosphorylation Ser235/236 in TSC1 null mouse embryo fibroblast (MEF) cells. In words: Reverse protein array assay, S6 Ribosomal Protein phosphorylation Ser235/236 in TSC1 null MEF cells. The class given is cell-based. The following applies: 1 h, pS6 ribosomal protein Ser235/236, 60 minutes incubation, read-out: p-S6 IC50. The essentials:
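TSC1−/− MEFs, seeded and held ≥20 h at 37 °C/5% CO2, were exposed to 8-step serial compound dilutions (0.02% DMSO final; DMSO vehicle control) for 60 min at 37 °C. Cells were then lysed on ice for 10 min and lysates spotted onto reverse protein array chips.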

The next test addresses T1, mTOR (Homo sapiens, UniProt P42345).
T1 construct: purchased Invitrogen Corporation (Carlsbad/CA, USA) PV4753
Description: Biochemical assay for m-TOR by TR-FRET. As to conditions: 8 μM ATP, 400 nM GFP-4EBP1, 0.5 nM mTOR. The method in brief:
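mTOR (0.5 nM final) phosphorylated GFP-4EBP1 (400 nM final) with ATP (8 μM final) at rt in 50 mM HEPES pH 7.5, 10 mM MnCl2, 50 mM NaCl, 1 mM EGTA, 1 mM DTT. EDTA stop with Tb3+-anti-p4EBP1 [pThr46] antibody (0.5 nM); TR-FRET read 15 min later.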
In general terms: In TR-FRET formats the signal depends on donor and acceptor labels being close together.

For the next test, the target named is T2, PI3K alpha (Homo sapiens, UniProt P42336).
T2 construct: p85(iSH2) fusion partner (see partner chain) (N); His tag (C); made in house; host or cells: baculovirus; Tn5 (Trichoplusia ni) or TiniPro insect cells
T2 sequence (P42336 with tags, fused parts or gaps limits assumed): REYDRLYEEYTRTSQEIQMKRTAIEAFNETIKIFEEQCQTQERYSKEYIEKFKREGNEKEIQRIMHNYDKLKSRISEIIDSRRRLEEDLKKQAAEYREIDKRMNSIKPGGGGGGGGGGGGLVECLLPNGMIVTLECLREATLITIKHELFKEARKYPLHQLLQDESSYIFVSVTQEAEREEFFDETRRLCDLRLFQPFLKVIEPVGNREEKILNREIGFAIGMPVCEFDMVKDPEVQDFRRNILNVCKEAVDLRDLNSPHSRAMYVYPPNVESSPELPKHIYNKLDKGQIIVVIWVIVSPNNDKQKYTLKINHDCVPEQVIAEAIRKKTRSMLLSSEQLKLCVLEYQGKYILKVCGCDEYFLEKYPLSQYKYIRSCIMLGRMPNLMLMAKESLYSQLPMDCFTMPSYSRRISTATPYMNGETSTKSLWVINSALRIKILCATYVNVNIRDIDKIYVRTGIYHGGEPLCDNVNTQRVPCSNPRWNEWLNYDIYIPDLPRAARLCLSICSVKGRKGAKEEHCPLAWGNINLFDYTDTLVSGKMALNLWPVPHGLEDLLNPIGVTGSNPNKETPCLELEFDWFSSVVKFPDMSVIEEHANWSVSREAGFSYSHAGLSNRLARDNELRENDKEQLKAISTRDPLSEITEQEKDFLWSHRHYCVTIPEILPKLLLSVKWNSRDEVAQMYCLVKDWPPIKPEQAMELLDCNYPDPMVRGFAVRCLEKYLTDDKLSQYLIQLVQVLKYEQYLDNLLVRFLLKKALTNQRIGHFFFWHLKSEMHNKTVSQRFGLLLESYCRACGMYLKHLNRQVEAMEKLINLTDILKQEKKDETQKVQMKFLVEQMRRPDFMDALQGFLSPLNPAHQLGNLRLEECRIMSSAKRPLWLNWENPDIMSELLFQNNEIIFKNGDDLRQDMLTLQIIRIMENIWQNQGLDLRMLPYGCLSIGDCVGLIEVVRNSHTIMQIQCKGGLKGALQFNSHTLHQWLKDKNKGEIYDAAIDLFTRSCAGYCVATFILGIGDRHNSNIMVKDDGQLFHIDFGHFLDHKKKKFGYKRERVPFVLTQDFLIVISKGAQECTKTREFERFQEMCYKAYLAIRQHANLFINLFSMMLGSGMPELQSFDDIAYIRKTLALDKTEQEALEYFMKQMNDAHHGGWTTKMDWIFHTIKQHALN
Description: PI3K alpha kinase assay (Kinase-Glo luminescence). It counts as biochemical. The method in brief: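 Enzyme 10 nM PI3Kα EMV B1075; ATP 1 μM; PI 10 μg/mL; Tris-HCl pH 7.5 10 mM, MgCl2 3 mM, NaCl 50 mM, CHAPS 0.05%, DTT 1 mM; 60 min RT; Kinase-Glo luminescence; 4-parameter IC50 fit, 8 concentrations, single points.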
Background: Kinase-Glo reads ATP consumption through a luciferase reaction.

Bounds are passed on as bounds.

T1 sequence (P42345 1360-2549 limits assumed): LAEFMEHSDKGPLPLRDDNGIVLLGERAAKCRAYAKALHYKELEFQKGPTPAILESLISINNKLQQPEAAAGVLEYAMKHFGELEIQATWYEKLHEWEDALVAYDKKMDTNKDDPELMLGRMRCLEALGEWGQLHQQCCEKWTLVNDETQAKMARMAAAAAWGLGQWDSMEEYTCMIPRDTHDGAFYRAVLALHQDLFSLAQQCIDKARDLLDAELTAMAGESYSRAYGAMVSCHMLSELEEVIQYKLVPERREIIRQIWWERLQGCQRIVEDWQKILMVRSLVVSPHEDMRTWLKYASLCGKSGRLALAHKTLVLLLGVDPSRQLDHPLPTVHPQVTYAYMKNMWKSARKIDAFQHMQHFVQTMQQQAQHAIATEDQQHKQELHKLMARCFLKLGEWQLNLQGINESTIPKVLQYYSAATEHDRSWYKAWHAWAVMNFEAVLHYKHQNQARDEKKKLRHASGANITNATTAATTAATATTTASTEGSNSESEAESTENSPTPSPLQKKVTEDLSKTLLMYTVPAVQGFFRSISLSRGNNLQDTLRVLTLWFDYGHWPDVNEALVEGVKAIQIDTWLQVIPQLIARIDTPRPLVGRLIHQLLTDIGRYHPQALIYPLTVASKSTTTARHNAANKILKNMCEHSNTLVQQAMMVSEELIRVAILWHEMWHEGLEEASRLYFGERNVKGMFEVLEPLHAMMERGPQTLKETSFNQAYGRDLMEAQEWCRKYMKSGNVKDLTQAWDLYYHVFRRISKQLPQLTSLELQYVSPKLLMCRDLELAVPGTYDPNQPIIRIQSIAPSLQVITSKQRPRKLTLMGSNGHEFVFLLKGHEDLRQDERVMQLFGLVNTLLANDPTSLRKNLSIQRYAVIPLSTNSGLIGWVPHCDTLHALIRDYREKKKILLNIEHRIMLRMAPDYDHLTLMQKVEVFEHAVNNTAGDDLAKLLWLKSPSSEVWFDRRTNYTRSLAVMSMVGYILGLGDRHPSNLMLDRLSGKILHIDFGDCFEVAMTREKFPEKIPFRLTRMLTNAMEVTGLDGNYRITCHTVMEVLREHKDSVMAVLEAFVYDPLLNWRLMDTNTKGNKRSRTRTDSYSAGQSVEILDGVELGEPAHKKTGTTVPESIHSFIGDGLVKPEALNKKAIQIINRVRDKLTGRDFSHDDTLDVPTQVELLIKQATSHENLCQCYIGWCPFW

On to `CCn1cc(-n2c(=O)n(C)c3cnc4ccc(-c5cncc(OC(C)C)c5)cc4c32)c(C)n1` [Example 58.4, 1-(1-Ethyl-3-methyl-1H-pyrazol-4-yl)-8-(5-isopropoxy-pyridin-3-yl)-3-methyl-1,3-dihydro-imidazo[4,5-c]quinolin-2-one], for which the figures for the IC50 (in test [1]; on mTOR; on PI3K alpha) were 0.002 µM, 0.031 µM and 0.014 µM, respectively.
Consider `CCOc1ccc(-c2ccc3ncc4c(c3c2)n(-c2cn(C)nc2C)c(=O)n4C)cn1` [Example 3.1, 1-(1,3-Dimethyl-1H-pyrazol-4-yl)-8-(6-ethoxy-pyridin-3-yl)-3-methyl-1,3-dihydro-imidazo[4,5-c]quinolin-2-one], for which the IC50 (in general, the midpoint of a concentration-inhibition curve) in test [1] worked out at 0.04 µM; at mTOR it was 0.011 µM; at PI3K alpha it was 0.021 µM.
As for `CCNc1cc(-c2ccc3ncc4c(c3c2)n(-c2c(C)nn(C)c2C)c(=O)n4C)cnc1CO` [Example 155.4, 8-(5-Ethylamino-6-hydroxymethyl-pyridin-3-yl)-3-methyl-1-(1,3,5-trimethyl-1H-pyrazol-4-yl)-1,3-dihydro-imidazo[4,5-c]quinolin-2-one], the IC50 in test [1] stood at 0.018 µM; at mTOR, 0.022 µM; at PI3K alpha, 0.125 µM.
Consider `COCCOc1cncc(-c2ccc3ncc4c(c3c2)n(-c2cn(C)nc2C)c(=O)n4C)c1` [Example 59.1, 1-(1,3-Dimethyl-1H-pyrazol-4-yl)-8-[5-(2-methoxy-ethoxy)-pyridin-3-yl]-3-methyl-1,3-dihydro-imidazo[4,5-c]quinolin-2-one], for which the IC50 in test [1] is 0.006 µM; at mTOR it was 0.096 µM; on PI3K alpha, 0.018 µM.
Taken in the same sequence, the figures for `CCOc1ccc(-c2ccc3ncc4c(c3c2)n(-c2c(C)nn(CC(=O)N(C)C)c2C)c(=O)n4C)cn1` [Example 3.12, 2-{4-[8-(6-Ethoxy-pyridin-3-yl)-3-methyl-2-oxo-2,3-dihydro-imidazo[4,5-c]quinolin-1-yl]-3,5-dimethyl-pyrazol-1-yl}-N,N-dimethyl-acetamide] were 0.175 µM, 0.548 µM and 0.057 µM.
On the same counts, the results for `CCOc1cncc(-c2ccc3ncc4c(c3c2)n(-c2cn(C)nc2C)c(=O)n4C)c1` [Example 56.1, 1-(1,3-Dimethyl-1H-pyrazol-4-yl)-8-(5-ethoxy-pyridin-3-yl)-3-methyl-1,3-dihydro-imidazo[4,5-c]quinolin-2-one] are 0.004 µM, 0.015 µM and 0.004 µM.
Take `CCn1cc(-n2c(=O)n(C)c3cnc4ccc(-c5cnc(OC)nc5)cc4c32)c(C)n1` [Example 17.1, 1-(1-Ethyl-3-methyl-1H-pyrazol-4-yl)-8-(2-methoxy-pyrimidin-5-yl)-3-methyl-1,3-dihydro-imidazo[4,5-c]quinolin-2-one]: the values for the IC50 (in test [1]; at mTOR; at PI3K alpha) were 0.087 µM, 0.059 µM and 0.03 µM, respectively.
On the same counts, the results for `Cc1nn(C)cc1-n1c(=O)n(C)c2cnc3ccc(-c4cnc5c(c4)C(C)(C)C(=O)N5C)cc3c21` [Example 233, 1-(1,3-Dimethyl-1H-pyrazol-4-yl)-3-methyl-8-(1,3,3-trimethyl-2-oxo-2,3-dihydro-1H-pyrrolo[2,3-b]pyridin-5-yl)-1,3-dihydro-imidazo[4,5-c]quinolin-2-one] are 0.003 µM, 0.064 µM and 0.022 µM.
Turning to `CNc1ncc(-c2ccc3ncc4c(c3c2)n(-c2cn(C)nc2C)c(=O)n4C)cc1Cl` [Example 146.1, 8-(5-Chloro-6-methylamino-pyridin-3-yl)-1-(1,3-dimethyl-1H-pyrazol-4-yl)-3-methyl-1,3-dihydro-imidazo[4,5-c]quinolin-2-one], the 50% inhibitory concentration (IC50) in test [1] is below 0.0005 µM; on mTOR, below 0.003 µM; at PI3K alpha, 0.014 µM.
Take `COC(C)(C)c1cncc(-c2ccc3ncc4c(c3c2)n(-c2cn(C)nc2C)c(=O)n4C)c1` [Example 239, 1-(1,3-Dimethyl-1H-pyrazol-4-yl)-8-[5-(1-methoxy-1-methyl-ethyl)-pyridin-3-yl]-3-methyl-1,3-dihydro-imidazo[4,5-c]quinolin-2-one]: the results for the IC50 (in test [1]; at mTOR; on PI3K alpha) were 0.001 µM, 0.049 µM and 0.01 µM, respectively.
In the case of `CCNC(=O)c1cc(-c2ccc3ncc4c(c3c2)n(-c2cn(C)nc2C)c(=O)n4C)cnc1NC` [Example 242.1, 5-[1-(1,3-Dimethyl-1H-pyrazol-4-yl)-3-methyl-2-oxo-2,3-dihydro-1H-imidazo[4,5-c]quinolin-8-yl]-N-ethyl-2-methylamino-nicotinamide], the IC50 amounted to 0.002 µM in test [1], 0.058 µM at mTOR and 0.023 µM at PI3K alpha.
With `CNC(=O)c1cc(-c2ccc3ncc4c(c3c2)n(-c2cn(C)nc2C)c(=O)n4C)cnc1N` [Example 224.1, 2-Amino-5-[1-(1,3-dimethyl-1H-pyrazol-4-yl)-3-methyl-2-oxo-2,3-dihydro-1H-imidazo[4,5-c]quinolin-8-yl]-N-methyl-nicotinamide], the IC50 in test [1] turned out to be 0.003 µM; on mTOR it was 0.034 µM; on PI3K alpha, 0.015 µM.
`Cc1nn(CC(=O)N2CCC2)cc1-n1c(=O)n(C)c2cnc3ccc(-c4cncc(OC(C)C)c4)cc3c21` [Example 205, 1-[1-(2-Azetidin-1-yl-2-oxo-ethyl)-3-methyl-1H-pyrazol-4-yl]-8-(5-isopropoxy-pyridin-3-yl)-3-methyl-1,3-dihydro-imidazo[4,5-c]quinolin-2-one]: the IC50 in test [1] was determined as 0.037 µM; on mTOR, 0.022 µM; on PI3K alpha, 0.005 µM.
On the same counts, the results for `CCOc1cc(-c2ccc3ncc4c(c3c2)n(-c2cn(CCO)nc2C)c(=O)n4C)cnc1C` [Example 211.2, 8-(5-Ethoxy-6-methyl-pyridin-3-yl)-1-[1-(2-hydroxy-ethyl)-3-methyl-1H-pyrazol-4-yl]-3-methyl-1,3-dihydro-imidazo[4,5-c]quinolin-2-one] are 0.011 µM, 0.011 µM and 0.006 µM.
`CNC(=O)c1ccc(-c2ccc3ncc4c(c3c2)n(-c2cn(C)nc2C)c(=O)n4C)cn1` [Example 15.1, 5-[1-(1,3-Dimethyl-1H-pyrazol-4-yl)-3-methyl-2-oxo-2,3-dihydro-1H-imidazo[4,5-c]quinolin-8-yl]-pyridine-2-carboxylic acid methylamide]: the IC50 in test [1] is 0.011 µM; at mTOR, 0.013 µM; at PI3K alpha, 0.016 µM.
Consider `CCn1cc(-n2c(=O)n(C)c3cnc4ccc(-c5cnc(F)c(NC)c5)cc4c32)c(C)n1` [Example 150.1, 1-(1-Ethyl-3-methyl-1H-pyrazol-4-yl)-8-(6-fluoro-5-methylamino-pyridin-3-yl)-3-methyl-1,3-dihydro-imidazo[4,5-c]quinolin-2-one], for which the half-inhibitory concentration (IC50) in test [1] came out at 0.001 µM; at mTOR it was 0.017 µM; on PI3K alpha it was 0.007 µM.
For `Cn1cc(-n2c(=O)n(C)c3cnc4ccc(-c5cnc(N)c(CO)c5)cc4c32)c(Cl)n1` [Example 169.3, 8-(6-Amino-5-hydroxymethyl-pyridin-3-yl)-1-(3-chloro-1-methyl-1H-pyrazol-4-yl)-3-methyl-1,3-dihydro-imidazo[4,5-c]quinolin-2-one], the IC50 in test [1] was 0.00132 µM; at mTOR, below 0.003 µM; on PI3K alpha, 0.005 µM.
As to `Cc1nn(C)cc1-n1c(=O)n(C)c2cnc3ccc(-c4cncc(OCC5CC5)c4)cc3c21` [Example 61, 8-(5-Cyclopropylmethoxy-pyridin-3-yl)-1-(1,3-dimethyl-1H-pyrazol-4-yl)-3-methyl-1,3-dihydro-imidazo[4,5-c]quinolin-2-one], the half-maximal inhibitory concentration (IC50) in test [1] stood at 0.001 µM; at mTOR, 0.065 µM; at PI3K alpha, 0.012 µM.
With `Cc1nn(CC(=O)N(C)C)cc1-n1c(=O)n(C)c2cnc3ccc(-c4ccc(-n5cccn5)cc4)cc3c21` [Example 51.2, N,N-Dimethyl-2-{3-methyl-4-[3-methyl-2-oxo-8-(4-pyrazol-1-yl-phenyl)-2,3-dihydro-imidazo[4,5-c]quinolin-1-yl]-pyrazol-1-yl}-acetamide], the IC50 in test [1] was 0.001 µM; on mTOR it was below 0.003 µM; on PI3K alpha, 0.008 µM.
As for `CCOc1ccc(-c2ccc3ncc4c(c3c2)n(-c2cn(CC(=O)N(C)CC)nc2C)c(=O)n4C)cn1` [Example 136, 2-{4-[8-(6-Ethoxy-pyridin-3-yl)-3-methyl-2-oxo-2,3-dihydro-imidazo[4,5-c]quinolin-1-yl]-3-methyl-pyrazol-1-yl}-N-ethyl-N-methyl-acetamide], the IC50 in test [1] stood at 0.003 µM; at mTOR it was 0.009 µM; on PI3K alpha it was 0.025 µM.
Consider `Cc1nn(C)c(C)c1-n1c(=O)n(C)c2cnc3ccc(-c4cnc(N)nc4)cc3c21` [Example 81.2, 8-(2-Amino-pyrimidin-5-yl)-3-methyl-1-(1,3,5-trimethyl-1H-pyrazol-4-yl)-1,3-dihydro-imidazo[4,5-c]quinolin-2-one], for which the results for the IC50 (in test [1]; at mTOR; on PI3K alpha) were 0.019 µM, 0.324 µM and 0.051 µM, respectively.
